Measurements taken from paper PMC5999399 (Journal of medicinal chemistry, 2017).

What was measured:
[1] = molecular target: T1, human MC4R (hMC4R) (Homo sapiens, UniProt P32245); details: cAMP at 10 μM, in relation to MT-II; ref previously published data; cited from earlier work
[2] = molecular target: T2, human MC3R (hMC3R) (Homo sapiens, UniProt P41968); details: [125I]NDP-α-MSH displacement at 10 μM; ref previously published data; cited from earlier work
[3] = molecular target: T3, human MC5R (hMC5R) (Homo sapiens, UniProt P33032); details: ref previously published data, cited from earlier work; for hMC5R % BE: [125I]NDP-α-MSH displacement at 10 μM
[4] = molecular target: T1, human MC4R (hMC4R); details: [125I]NDP-α-MSH displacement at 10 μM; ref previously published data; cited from earlier work
[5] = molecular target: T4, human MC1R (hMC1R) (Homo sapiens, UniProt Q01726); details: cAMP at 10 μM, in relation to MT-II; ref previously published data; cited from earlier work
[6] = molecular target: T4, human MC1R (hMC1R); test: Adenylate cyclase; type: cell-based; details: EC50 ratio
[7] = molecular target: T4, human MC1R (hMC1R); details: [125I]NDP-α-MSH displacement at 10 μM; ref previously published data; cited from earlier work
[8] = molecular target: T3, human MC5R (hMC5R); details: cAMP at 10 μM, in relation to MT-II; ref previously published data; cited from earlier work
[9] = molecular target: T2, human MC3R (hMC3R); details: ref previously published data, cited from earlier work; for hMC3R % max effect: cAMP at 10 μM, in relation to MT-II

T2 sequence (P41968 whole entry): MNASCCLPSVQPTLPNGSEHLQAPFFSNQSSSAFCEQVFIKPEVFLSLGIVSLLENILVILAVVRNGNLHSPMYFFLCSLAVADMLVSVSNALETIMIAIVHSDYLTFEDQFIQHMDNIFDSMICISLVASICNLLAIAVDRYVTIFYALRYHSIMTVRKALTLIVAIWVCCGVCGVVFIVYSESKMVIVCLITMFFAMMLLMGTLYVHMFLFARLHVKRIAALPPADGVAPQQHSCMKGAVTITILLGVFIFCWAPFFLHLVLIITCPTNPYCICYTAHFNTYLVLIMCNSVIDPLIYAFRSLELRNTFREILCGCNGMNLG
T1 sequence (P32245 whole entry): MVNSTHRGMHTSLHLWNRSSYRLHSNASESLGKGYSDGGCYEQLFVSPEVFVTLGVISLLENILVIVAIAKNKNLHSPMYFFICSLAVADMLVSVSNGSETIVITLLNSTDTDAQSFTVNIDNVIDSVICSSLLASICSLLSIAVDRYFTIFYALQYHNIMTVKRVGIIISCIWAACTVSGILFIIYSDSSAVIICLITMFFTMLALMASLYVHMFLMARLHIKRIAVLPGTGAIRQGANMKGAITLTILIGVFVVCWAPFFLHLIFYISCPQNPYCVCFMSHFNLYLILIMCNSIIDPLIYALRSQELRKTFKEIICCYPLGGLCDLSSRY
T4 sequence (Q01726 whole entry): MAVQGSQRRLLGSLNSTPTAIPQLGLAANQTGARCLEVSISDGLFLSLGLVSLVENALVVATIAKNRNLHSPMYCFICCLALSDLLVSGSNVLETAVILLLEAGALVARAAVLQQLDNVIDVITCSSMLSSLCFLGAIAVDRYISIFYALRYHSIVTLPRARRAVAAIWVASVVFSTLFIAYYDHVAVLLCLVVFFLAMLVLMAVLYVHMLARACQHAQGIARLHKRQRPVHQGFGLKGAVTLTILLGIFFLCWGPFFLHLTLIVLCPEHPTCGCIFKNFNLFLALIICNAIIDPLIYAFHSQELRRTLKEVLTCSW
T3 sequence (P33032 whole entry): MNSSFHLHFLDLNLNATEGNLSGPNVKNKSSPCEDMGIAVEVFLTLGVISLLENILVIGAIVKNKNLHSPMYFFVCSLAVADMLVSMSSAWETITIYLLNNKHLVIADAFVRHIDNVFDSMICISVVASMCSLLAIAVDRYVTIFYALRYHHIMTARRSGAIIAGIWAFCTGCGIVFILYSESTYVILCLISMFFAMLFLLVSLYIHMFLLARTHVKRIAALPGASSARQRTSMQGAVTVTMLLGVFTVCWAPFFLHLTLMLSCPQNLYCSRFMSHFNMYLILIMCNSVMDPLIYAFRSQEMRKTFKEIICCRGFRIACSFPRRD

increase in potency to hMC1R compared to γ-MSH [6]	Substance	hMC4R % max effect [1]	hMC3R % BE [2]	hMC5R % BE [3]	hMC4R % BE [4]	hMC1R % max effect [5]	hMC1R % BE [7]	hMC5R % max effect [8]	hMC3R % max effect [9]	IC50 ([3]; read-out: hMC5R IC50, 50% specific binding)	EC50 ([9]; read-out: hMC3R EC50, cAMP accumulation)
3 fold	H-Tyr^1-Val^2-Met^3-Gly^4-His^5-Phe^6-Arg^7-Trp^8–Asp^9-Arg^10-Phe^11-Gly^12-NH2 [Compound 12]	76%	100%	100%	100%	100%	100%				
	Ac-Tyr^1-Val^2-Nle^3-Gly^4-His^5-D-Phe^6-Arg^7-Trp^8-Asp^9-Arg^10-Phe^11-Gly^12-NH2 [Compound 13]	100%	100%	100%	100%	100%	100%	100%			
	Ac-Ser-Tyr-Ser-Met-Glu-His-Phe-Arg-Trp-Gly-Lys-Pro-Val-NH2 [Compound 14]		100%	100%		100%	100%	100%	100%		
	H-Tyr-Val-Nle-Gly-His-D-Nal(2)-Arg-D-Trp-Asp-Arg-Phe-Gly-NH2 [Compound 1]		100%	100%				6%	6%	3.5 ± 0.5 nM	300 ± 6 nM
